Reference: publication PMC6442109, “Novel thienopyrimidine derivatives as dual EGFR and VEGFR-2 inhibitors: design, synthesis, anticancer activity and effect on cell cycle profile” (Journal of Enzyme Inhibition and Medicinal Chemistry, 2019)
Read-outs that look alike come from different tables or passages of the source.

How the values were obtained:
MCF-7 cell line = test: MTT anticancer activity assay against MCF-7; settings: for IC50: Homo sapiens, MCF7, 48 h, read-out: IC50 on MCF-7 cell line
[1] = target: T1, recombinant human VEGFR-2/KDR (Homo sapiens, UniProt P35968); test: In vitro VEGFR-2 kinase inhibitory assay (ELISA kit); format: biochemical; settings: mean of three experiments ± SD
T1 construct: purchased #7788
Description: About 10 µL of 10 mM ATP was added to 1.25 mL 6 µM substrate peptide followed by dilution of the mixture with distilled water to 2.50 mL to make 2× ATP/substrate cocktail ([ATP] = 40 µM, [substrate] = 3 µm). The enzyme was immediately transferred from –80 °C to ice and was allowed to thaw on ice. Microcentrifuge was performed briefly at 4 °C and returned immediately to ice. […] About 0.6 mL of DTT/Kinase buffer was transferred to each enzyme tube to make 4× reaction mixture. […] About 25 µL of 2× ATP/substrate cocktail was added to 25 µL/well pre-incubated reaction mixture/compound. Reaction plate was incubated at room temperature for 30 min. Then, 50 µL/well stop buffer (50 mM EDTA, pH 8) was added to stop the reaction. […] About 100 µL/well primary antibody was added and incubated at room temperature for 60 min followed by washing three times with 200 µL/well PBS/T.
Appropriate dilution of HRP labeled secondary antibody in PBS/T was prepared with 1% BSA (1:500 dilution for anti-mouse IgG or 1:1000 for anti-rabbit IgG). About 100 µL/well secondary antibody solution was added and incubated at room temperature for 30 min then washed five times with 200 µL/well PBS/T followed by addition of 100 µL/well 3,3′,5,5′-tetramethylbenzidine (TMB) substrate and incubation at room temperature for 15 min and finally addition of 100 µL/well of stop solution and mix well. The absorbance was read at 450 nm with a microtiter plate reader. The values of % activity versus a series of compound concentrations (0.01 µM–0.1 µM–1 µM–10 µM) was then plotted using non-linear regression analysis of sigmoidal dose-response curve.

EGFR [2] = target: T2, EGFR (Homo sapiens, UniProt P00533); test: In vitro EGFR kinase inhibitory assay (Kinase-Glo luminescence kit)
[3] = tested on: MCF-10A (the human mammary epithelial cell line); test: MTT cytotoxicity on normal mammary epithelial cell line; settings: for IC50: Homo sapiens, MCF-10A, read-out: IC50 on normal mammary epithelial cell line (MCF-10A); for Selectivity index: MCF-10A versus MCF-7 tumor cell line
MCF-7 cells [4] = test: Cell cycle analysis, propidium iodide flow cytometry; format: cell-based, human; settings: 24 h
Description: Cell cycle were carried out using propidium iodide flow cytometry kit (Abcam, ab139418) according to the manufacturer’s instructions. The MCF-7 cells were treated with 0.66 µM of compound 5f for 24 h. Then, the cells were washed twice with ice-cold PBS, centrifuged and fixed using ice-cold 66% (v/v) ethanol, washed with PBS, re-suspended with 0.1 mg/mL RNase and stained with 200 µL propidium iodide (PI). Finally, cells were analyzed by flow cytometry. The cell cycle distributions were calculated using Cell-Quest software (Becton Dickinson). An interference with the normal cell cycle distribution resulted upon exposure of MCF-7 cells to this compound as indicated.

MCF-7 cells [5] = test: Annexin V-FITC/PI apoptosis detection; format: cell-based, human; settings: MCF-7, 0.66 µM, 24 h
Description: Apoptosis was evaluated utilizing Annexin V-FITC/PI apoptosis detection kit (Biovision, Mountain View, CA #K101-25) according to the manufacturer’s instructions after staining the cells with Annexin V fluorescein isothiocyanate (FITC) and counterstaining with propidium iodide (PI).
The cells then were centrifuged and in case of adherent cells, cells were gently trypsinized and washed once with serum-containing media followed by resuspension in 500 µL of binding buffer. About 5 µL of Annexin V-FITC and 5 µL of (PI […]) were added and incubated at room temperature for 5 min in the dark. Analyses were carried out using flow cytometer (Ex = 488 nm; Em = 530 nm) using FITC signal detector (usually FL1) and PI staining by the phycoerythrin emission signal detector (usually FL2).

EGFR [6] = target: T2, EGFR; settings: Figure 1 compounds I–VII; cited from earlier work
VEGFR-2 = settings: Figure 1 compounds I–VII; cited from earlier work

T2 sequence (P00533 25-1210): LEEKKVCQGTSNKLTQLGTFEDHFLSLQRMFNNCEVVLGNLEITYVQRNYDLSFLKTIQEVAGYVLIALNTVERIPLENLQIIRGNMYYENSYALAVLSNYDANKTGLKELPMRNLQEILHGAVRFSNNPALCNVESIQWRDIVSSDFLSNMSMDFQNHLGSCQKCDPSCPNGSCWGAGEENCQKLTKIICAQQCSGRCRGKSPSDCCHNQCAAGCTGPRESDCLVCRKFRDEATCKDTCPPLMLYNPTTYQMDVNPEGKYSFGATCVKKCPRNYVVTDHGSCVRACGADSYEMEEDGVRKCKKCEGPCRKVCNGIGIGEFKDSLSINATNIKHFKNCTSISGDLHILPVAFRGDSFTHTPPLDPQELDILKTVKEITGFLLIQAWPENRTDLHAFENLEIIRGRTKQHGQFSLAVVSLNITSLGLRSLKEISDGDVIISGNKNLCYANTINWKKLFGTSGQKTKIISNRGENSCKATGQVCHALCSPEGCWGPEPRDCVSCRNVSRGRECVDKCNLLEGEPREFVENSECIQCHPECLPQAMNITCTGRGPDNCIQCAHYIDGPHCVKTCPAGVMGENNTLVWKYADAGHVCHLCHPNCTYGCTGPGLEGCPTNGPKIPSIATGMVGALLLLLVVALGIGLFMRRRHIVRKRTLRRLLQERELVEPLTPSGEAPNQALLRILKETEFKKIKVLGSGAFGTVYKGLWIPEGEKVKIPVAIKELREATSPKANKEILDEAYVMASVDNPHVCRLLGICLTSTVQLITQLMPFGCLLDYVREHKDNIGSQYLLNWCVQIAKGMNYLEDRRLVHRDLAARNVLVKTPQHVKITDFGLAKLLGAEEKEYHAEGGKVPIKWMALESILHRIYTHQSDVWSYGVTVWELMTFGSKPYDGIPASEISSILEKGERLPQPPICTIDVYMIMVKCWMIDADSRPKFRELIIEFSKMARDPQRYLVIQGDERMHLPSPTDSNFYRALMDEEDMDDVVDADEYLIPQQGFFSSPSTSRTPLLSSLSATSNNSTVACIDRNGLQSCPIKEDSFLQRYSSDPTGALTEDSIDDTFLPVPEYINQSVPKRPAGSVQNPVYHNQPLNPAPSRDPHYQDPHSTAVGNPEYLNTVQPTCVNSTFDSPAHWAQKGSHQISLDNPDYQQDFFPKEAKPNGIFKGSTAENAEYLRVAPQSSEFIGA
T1 sequence (P35968 20-1356): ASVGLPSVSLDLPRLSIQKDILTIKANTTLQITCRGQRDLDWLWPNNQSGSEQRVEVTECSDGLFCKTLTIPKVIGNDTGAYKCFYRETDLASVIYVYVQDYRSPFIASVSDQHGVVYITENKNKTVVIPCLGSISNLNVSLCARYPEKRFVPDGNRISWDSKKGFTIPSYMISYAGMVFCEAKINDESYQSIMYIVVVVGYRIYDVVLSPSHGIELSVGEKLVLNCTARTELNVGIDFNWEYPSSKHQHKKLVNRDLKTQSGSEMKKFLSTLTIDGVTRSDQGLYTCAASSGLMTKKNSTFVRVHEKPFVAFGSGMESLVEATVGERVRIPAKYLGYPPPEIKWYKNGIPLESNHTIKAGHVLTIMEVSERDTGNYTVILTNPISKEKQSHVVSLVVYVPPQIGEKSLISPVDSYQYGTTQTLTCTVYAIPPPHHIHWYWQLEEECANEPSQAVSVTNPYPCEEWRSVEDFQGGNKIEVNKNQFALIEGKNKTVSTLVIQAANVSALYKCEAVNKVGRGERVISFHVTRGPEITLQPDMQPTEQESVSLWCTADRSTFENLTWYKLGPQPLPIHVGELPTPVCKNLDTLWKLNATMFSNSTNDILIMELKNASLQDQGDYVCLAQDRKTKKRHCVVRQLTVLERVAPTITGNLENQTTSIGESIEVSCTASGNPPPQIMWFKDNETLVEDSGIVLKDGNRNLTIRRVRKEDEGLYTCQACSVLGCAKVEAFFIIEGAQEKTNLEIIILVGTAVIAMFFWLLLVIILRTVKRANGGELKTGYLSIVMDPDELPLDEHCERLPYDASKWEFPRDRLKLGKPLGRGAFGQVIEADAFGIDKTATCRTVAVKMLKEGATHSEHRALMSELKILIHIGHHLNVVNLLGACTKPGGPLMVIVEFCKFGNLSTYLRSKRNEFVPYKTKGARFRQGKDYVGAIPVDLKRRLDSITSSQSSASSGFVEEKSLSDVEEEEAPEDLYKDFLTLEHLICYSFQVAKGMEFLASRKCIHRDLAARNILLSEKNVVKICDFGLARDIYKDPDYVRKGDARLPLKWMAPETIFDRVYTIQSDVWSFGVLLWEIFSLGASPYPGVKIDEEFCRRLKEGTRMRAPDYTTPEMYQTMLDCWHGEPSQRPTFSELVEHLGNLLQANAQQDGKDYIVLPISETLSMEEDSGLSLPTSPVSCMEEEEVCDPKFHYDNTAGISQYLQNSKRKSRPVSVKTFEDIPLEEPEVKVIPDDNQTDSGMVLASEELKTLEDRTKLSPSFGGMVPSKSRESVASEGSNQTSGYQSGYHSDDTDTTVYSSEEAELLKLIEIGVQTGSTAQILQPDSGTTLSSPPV

| SMILES | melting point [°C] | IC50 (MCF-7 cell line) [nM] | IC50 (EGFR [2]) [nM] | also measured |
| --- | --- | --- | --- | --- |
| NS(=O)(=O)c1ccc(Nc2ncnc3sc4c(c23)CCCCC4)cc1 [Compound 4a, 4-((6,7,8,9-Tetrahydro-5H-cyclohepta[4,5]thieno[2,3-d]pyrimidin-4-yl)amino)benzenesulfonamide] | 271 to 272 | 39800 ± 4110 |  |  |
| O=S(=O)(Nc1ncccn1)c1ccc(Nc2ncnc3sc4c(c23)CCCCC4)cc1 [Compound 4b, N-(Pyrimidin-2-yl)-4-((6,7,8,9-tetrahydro-5H-cyclohepta[4,5]thieno[2,3-d]pyrimidin-4-yl)amino)benzenesulfonamide] | 243 to 245 | 7120 ± 550 |  |  |
| Cc1ccnc(NS(=O)(=O)c2ccc(Nc3ncnc4sc5c(c34)CCCCC5)cc2)n1 [Compound 4c, N-(4-Methylpyrimidin-2-yl)-4-((6,7,8,9-tetrahydro-5H-cyclohepta[4,5]thieno[2,3-d]pyrimidin-4-yl)amino)benzenesulfonamide] | 260 to 262 | 11000 ± 1240 |  |  |
| COc1cccc2c1C(=O)c1c(O)c3c(c(O)c1C2=O)C[C@@](O)(C(=O)CO)C[C@@H]3O[C@H]1C[C@H](N)[C@H](O)[C@H](C)O1 [Doxorubicin, reference compound] |  | 3060 ± 190 |  | IC50 [3]: 27600 ± 1550 nM |
| C#Cc1cccc(Nc2ncnc3cc(OCCOC)c(OCCOC)cc23)c1 [Erlotinib, reference compound] |  | 1140 ± 50 |  | IC50 [3]: 69400 ± 4240 nM |
| CCOC(=O)Nc1ccc(Nc2ncnc3cc(OC)c(OC)cc23)cc1Cl [III] |  |  |  | IC50 (EGFR [6]): 900 nM |
| COC(=O)Nc1ccc(Nc2ncnc3cc(OC)c(OC)cc23)cc1 [II] |  |  |  | IC50 (VEGFR-2): 5800 nM |
| COc1cc2nc(Cl)nc(Nc3ccc(S(=O)(=O)Nc4nccs4)cc3)c2cc1OC [IV] |  |  |  | IC50 (VEGFR-2): 7790 nM |
| COc1cc2ncnc(Nc3ccc(Br)cc3F)c2cc1OC [I] |  |  |  | IC50 (VEGFR-2): 1650 nM |
| O=C(Nc1cccc(Br)c1)Nc1ccc(Oc2ncnc3sc4c(c23)CCCC4)cc1Cl [VII] |  |  |  | IC50 (VEGFR-2): 15 nM |
| COc1cc2nc(Cl)nc(Nc3ccc(C(N)=O)cc3)c2cc1OC [VI] |  |  |  | IC50 (VEGFR-2): 1170 nM |
| COc1cc2nc(Cl)nc(Nc3ccc(S(N)(=O)=O)cc3)c2cc1OC [V] |  |  |  | IC50 (VEGFR-2): 1020 nM |

More lines, main results first:

| melting point [°C] | IC50 (MCF-7 cell line) [nM] | IC50 (EGFR [2]) [nM] | SMILES | also measured |
| --- | --- | --- | --- | --- |
| 179 to 180 | 1980 ± 210 | 70 ± 3 | Nc1cccc(Oc2ncnc3sc4c(c23)CCCCC4)c1 [Compound 5a, 3-((6,7,8,9-Tetrahydro-5H-cyclohepta[4,5]thieno[2,3-d]pyrimidin-4-yl)oxy)aniline] | IC50 [1]: 1710 ± 62 nM |
| > 300 | 1470 ± 110 | 42 ± 2 | Nc1ccc(Oc2ncnc3sc4c(c23)CCCCC4)cc1 [Compound 5b, 4-((6,7,8,9-Tetrahydro-5H-cyclohepta[4,5]thieno[2,3-d]pyrimidin-4-yl)oxy)aniline] | IC50 [1]: 510 ± 16 nM; IC50 [3]: 72700 ± 3980 nM; Selectivity index [3]: 49.5; folds more potent than lapatinib, EGFR inhibitory activity (EGFR [2]): 1.24 folds |
| 135 to 136 | 6650 ± 410 |  | Brc1ccc(Oc2ncnc3sc4c(c23)CCCCC4)cc1 [Compound 5c, 4-(4-Bromophenoxy)-6,7,8,9-tetrahydro-5H-cyclohepta[4,5]thieno[2,3-d]pyrimidine] |  |
| > 300 | 1340 ± 70 | 70 ± 4 | Clc1ccccc1Oc1ncnc2sc3c(c12)CCCCC3 [Compound 5d, 4-(2-Chlorophenoxy)-6,7,8,9-tetrahydro-5H-cyclohepta[4,5]thieno[2,3-d]pyrimidine] | IC50 [1]: 740 ± 25 nM |
| 115 to 116 | 2760 ± 330 | 69 ± 3 | Clc1ccc(Oc2ncnc3sc4c(c23)CCCCC4)cc1 [Compound 5e, 4-(4-Chlorophenoxy)-6,7,8,9-tetrahydro-5H-cyclohepta[4,5]thieno[2,3-d]pyrimidine] | IC50 [1]: 340 ± 13 nM |
|  | 660 ± 50 | 28 ± 3 | Cc1cc(Oc2ncnc3sc4c(c23)CCCCC4)ccc1Cl [Compound 5f, 4-(4-Chloro-3-methylphenoxy)-6,7,8,9-tetrahydro-5H-cyclohepta[4,5]thieno[2,3-d]pyrimidine] | IC50 [1]: 1230 ± 28 nM; %G0–G1 (MCF-7 cells [4]; MCF-7, 0.66 µM): 34.19%; %G2/M (MCF-7 cells [4]; MCF-7, 0.66 µM): 32.65%; %Pre-G1 (MCF-7 cells [4]; MCF-7, 0.66 µM): 17.58%; %S (MCF-7 cells [4]; MCF-7, 0.66 µM): 33.16%; increase in percentage of cells at G2/M phase compared to control (MCF-7 cells [4]; MCF-7, IC50 concentration): 4.75 folds; increase in percentage of cells at pre-G1 phase compared to control (MCF-7 cells [4]; MCF-7, IC50 concentration): 11.80 folds; Apoptosis %Total (MCF-7 cells [5]): 17.58%; increase in annexin-V positive cells (early apoptosis) more than control (MCF-7 cells [5]): 6.07 folds; increase in late apoptotic cells more than control (MCF-7 cells [5]): about 24.66 folds; increase in necrotic cells more than control (MCF-7 cells [5]): ~12.48 folds; Apoptosis %Early (MCF-7 cells [5]; lower right quadrant): 5.34%; Necrosis (MCF-7 cells [5]; upper left quadrant): 2.87%; Apoptosis %Late (MCF-7 cells [5]; upper right quadrant): 9.37%; folds more potent than doxorubicin, anticancer activity (MCF-7 cell line; MCF-7): 4.64 folds; folds more potent than erlotinib, anticancer activity (MCF-7 cell line; MCF-7): 1.73 folds; IC50 [3]: 153000 ± 7570 nM; Selectivity index [3]: 232.1; folds more potent than erlotinib, EGFR inhibitory activity (EGFR [2]): 1.18 folds |
| > 300 | 1230 ± 40 | 200 ± 11 | Fc1ccc(Oc2ncnc3sc4c(c23)CCCCC4)cc1 [Compound 5g, 4-(4-Fluorophenoxy)-6,7,8,9-tetrahydro-5H-cyclohepta[4,5]thieno[2,3-d]pyrimidine] |  |
| > 300 | 87400 ± 5400 |  | Cc1ccccc1Oc1ncnc2sc3c(c12)CCCCC3 [Compound 5h, 4-(o-Tolyloxy)-6,7,8,9-tetrahydro-5H-cyclohepta[4,5]thieno[2,3-d]pyrimidine] |  |
| > 300 | 21100 ± 2700 |  | Cc1ccc(Oc2ncnc3sc4c(c23)CCCCC4)cc1 [Compound 5i, 4-(p-Tolyloxy)-6,7,8,9-tetrahydro-5H-cyclohepta[4,5]thieno[2,3-d]pyrimidine] |  |
| > 300 | 5010 ± 310 |  | COc1ccc(Oc2ncnc3sc4c(c23)CCCCC4)cc1 [Compound 5j, 4-(4-Methoxyphenoxy)-6,7,8,9-tetrahydro-5H-cyclohepta[4,5]thieno[2,3-d]pyrimidine] |  |
| 166 to 169 | 2760 ± 190 | 460 ± 18 | O=[N+]([O-])c1ccc(Oc2ncnc3sc4c(c23)CCCCC4)cc1 [Compound 5k, 4-(4-Nitrophenoxy)-6,7,8,9-tetrahydro-5H-cyclohepta[4,5]thieno[2,3-d]pyrimidine] |  |
